What was measured:
[1] = Storage stability of crystalline forms at 40° C./75% RH (6 months stability results); assay type: physicochemical; details: for Impurity Profile (i) Tetrahydro benzazepine / Impurity Profile (ii) (S)-methyl amino Compd. / Impurity Profile (iii) Benzocylco butane Compd. / Impurity Profile (iv) Dimer Impurity: BDL = Below Detection Limit
Text: In another general aspect, the storage stable crystalline Form-II of ivabradine hydrochloride may be characterized by at least 6 months stability results as outline in Table-III which is representative for one of the batch.
In another general aspect, the storage stable crystalline Form III of ivabradine hydrochloride may be characterized by at least 6 months stability results as outline in Table-IV which is representative for one of the batch.

[2] = Storage stability of crystalline forms at 25° C./60% RH; assay type: physicochemical; details: storage for 6 months at 25° C. and a relative humidity of 60%
[3] = 1 Month, 40° C. ± 2° C./75% ± 5% RH
[4] = 1 Month, 40° C. ± 2° C./75% ± 5% RH, listed as Form-II, hydrochloride
[5] = 2 Months, 40° C. ± 2° C./75% ± 5% RH
[6] = 2 Months, 40° C. ± 2° C./75% ± 5% RH, listed as Form-II, hydrochloride
[7] = 3 Months, 40° C. ± 2° C./75% ± 5% RH
[8] = 3 Months, 40° C. ± 2° C./75% ± 5% RH, listed as Form-II, hydrochloride
[9] = 6 Months, 40° C. ± 2° C./75% ± 5% RH
[10] = Initial, specification Not more than 0.15
[11] = 1 Month, 40° C. ± 2° C./75% ± 5% RH, listed as Form-III, hydrochloride
[12] = 2 Months, 40° C. ± 2° C./75% ± 5% RH, listed as Form-III, hydrochloride
[13] = 3 Months, 40° C. ± 2° C./75% ± 5% RH, listed as Form-III, hydrochloride

COc1cc2c(cc1OC)CC(=O)N(CCCN(C)C[C@H]1Cc3cc(OC)c(OC)cc31)CC2.Cl [Form II, 3-{3-{{[(7S)-3,4-dimethoxybicyclo[4.2.0]octa-1,3,5-trien-7-yl]methyl}(methyl)amino}-propyl}-7,8-dimethoxy-1,3,4,5-tetrahydro-2H-3-benzazepin-2-one hydrochloride]
0.02: Impurity Profile (v) Single Ind. [1, 4] | Impurity Profile (v) Single Ind. [1, 6]
2.0 % w/w: Water by KF (% w/w) [1, 3] | Water by KF (% w/w) [1, 5] | Water by KF (% w/w) [1, 9]
0.09: Impurity Profile (vi) Total Imp. [1, 9] | Impurity Profile (vi) Total Imp. [1, 10]
Form-II: Polymorph [1, 4] | Polymorph [1, 6] | Polymorph [1, 8] | Polymorph ([1]; 6 Months, 40° C. ± 2° C./75% ± 5% RH, listed as Form-II, hydrochloride) | Polymorph ([1]; Initial, listed as Form-II, hydrochloride)
2.1 % w/w: Water by KF (% w/w) [1, 7] | Water by KF (% w/w) ([1]; Initial, specification Not more than 4.0%)
no detectable quantity: quantity of crystalline β, δ, γ, or amorphous forms after storage ([1]; storage for 6 months at 40° C. and a relative humidity of 75%) | quantity of crystalline β, δ, γ, or amorphous forms after storage [2]
BDL: Impurity Profile (i) Tetrahydro benzazepine [1, 3] | Impurity Profile (ii) (S)-methyl amino Compd. [1, 3] | Impurity Profile (iii) Benzocylco butane Compd. [1, 3] | Impurity Profile (iv) Dimer Impurity [1, 3] | Impurity Profile (i) Tetrahydro benzazepine [1, 5] | Impurity Profile (ii) (S)-methyl amino Compd. [1, 5] | Impurity Profile (iii) Benzocylco butane Compd. [1, 5] | Impurity Profile (iv) Dimer Impurity [1, 5] | Impurity Profile (i) Tetrahydro benzazepine [1, 7] | Impurity Profile (ii) (S)-methyl amino Compd. [1, 7] | Impurity Profile (iii) Benzocylco butane Compd. [1, 7] | Impurity Profile (iv) Dimer Impurity [1, 7] | Impurity Profile (i) Tetrahydro benzazepine [1, 9] | Impurity Profile (ii) (S)-methyl amino Compd. [1, 9] | Impurity Profile (iii) Benzocylco butane Compd. [1, 9] | Impurity Profile (iv) Dimer Impurity [1, 9] | Impurity Profile (i) Tetrahydro benzazepine [1, 10] | Impurity Profile (ii) (S)-methyl amino Compd. [1, 10] | Impurity Profile (iii) Benzocylco butane Compd. [1, 10] | Impurity Profile (iv) Dimer Impurity [1, 10]
White: Description [1, 3] | Description [1, 5] | Description [1, 7] | Description [1, 9] | Description ([1]; Initial, specification White to slightly yellow powder)
0.08: Impurity Profile (vi) Total Imp. [1, 7]
0.03: Impurity Profile (vi) Total Imp. [1, 6] | Impurity Profile (v) Single Ind. [1, 8] | Impurity Profile (v) Single Ind. [1, 9]
0.04: Impurity Profile (v) Single Ind. [1, 10]
0.05: Impurity Profile (vi) Total Imp. [1, 4]

COc1cc2c(cc1OC)CC(=O)N(CCCN(C)C[C@H]1Cc3cc(OC)c(OC)cc31)CC2.Cl [Form III, 3-{3-{{[(7S)-3,4-dimethoxybicyclo[4.2.0]octa-1,3,5-trien-7-yl]methyl}(methyl)amino}-propyl}-7,8-dimethoxy-1,3,4,5-tetrahydro-2H-3-benzazepin-2-one hydrochloride]
Form-III: Polymorph [1, 11] | Polymorph [1, 12] | Polymorph [1, 13] | Polymorph ([1]; 6 Months, 40° C. ± 2° C./75% ± 5% RH, listed as Form-III, hydrochloride) | Polymorph ([1]; Initial, listed as Form-III, hydrochloride)
0.04: Impurity Profile (v) Single Ind. [1, 11] | Impurity Profile (v) Single Ind. [1, 13]
0.07: Impurity Profile (vi) Total Imp. [1, 11]
0.06: Impurity Profile (vi) Total Imp. [1, 12]
0.03: Impurity Profile (v) Single Ind. [1, 12]

Reference: US9382209B2, “Polymorphic forms of ivabradine hydrochloride” (CADILA HEALTHCARE LIMITED, priority 2011, dated 2016)
